The values below are quoted from earlier work in EP4026540A1, “A FILM COATED TABLET COMPRISING APIXABAN” (SANOVEL ILAC SANAYI VE TICARET A.S., priority 2021, dated 2022).

SMILES strings stand for the structures.

The conditions of this series: single 10 mg dose.

As for `COc1ccc(-n2nc(C(N)=O)c3c2C(=O)N(c2ccc(N4CCCCC4=O)cc2)CC3)cc1` [apixaban, 1-(4-methoxyphenyl)-7-oxo-6-[4-(2-oxopiperidin-1-yl)phenyl]-4,5,6,7-tetrahydro-1H-pyrazolo[3,4-c]pyridine-3-carboxamide], the oral bioavailability result is “about 50%”.
